This is an account of results in paper PMC6320911, “Discovery of a Natural Syk Inhibitor from Chinese Medicine through a Docking-Based Virtual Screening and Biological Assay Study” (Molecules, 2018).

In this assay the target is T1, Spleen tyrosine kinase (Syk) (Homo sapiens, UniProt P43405).
T1 construct: Syk (ab60886)
Nature of the assay: ADP-Glo luminescent kinase assay with dose-response ([…] ATP in substrate solution, poly Glu:Tyr […]). Type of assay: biochemical.

Turning to `Cc1coc2c1C(=O)C(=O)c1c-2ccc2c(C)cccc12` [compound 13, Tanshinone I], it took 1.64 µM to reach half-maximal inhibition (IC50).
